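Exposure lasted 48 hours, with cells grown in 96-well plates and compounds tested at five concentrations. At the TGI there is no net growth.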
Tests used:
Test in all cases: inhibition of tumour cell growth, NCI panel, 48 h
[1] = system: LXFL 529 NSCLC
[2] = system: SK-MEL-28 melanoma
[3] = system: SF-295 CNS
[4] = system: SW-620 colon
[5] = system: LOX IMVI melanoma
[6] = system: DLD-1 colon
[7] = system: UO-31 renal
[8] = system: A549 NSCLC
[9] = system: IGROV1 ovarian
[10] = system: SN12C renal
[11] = system: HOP-92 NSCLC
[12] = system: UACC-257 melanoma
[13] = system: U251 CNS
[14] = system: SF-268 CNS
[15] = system: HL-60(TB) leukemia
[16] = system: HCT-15 colon
[17] = system: SF-539 CNS
[18] = system: RPMI-8226 leukemia
[19] = system: TK-10 renal
[20] = system: SK-MEL-5 melanoma
[21] = system: HOP-62 NSCLC
[22] = system: NCI-H23 lung
[23] = system: SNB-19 CNS
[24] = system: SNB-75 CNS
[25] = system: CCRF-CEM leukemia
[26] = system: K-562 leukemia
[27] = system: COLO 205 colon
[28] = system: CAKI-1 renal
[29] = system: DMS 114 small cell lung
[30] = system: M19-MEL melanoma
[31] = system: ACHN renal
[32] = system: MOLT-4 leukemia
[33] = system: SR leukemia
[34] = system: DMS 273 small cell lung
[35] = system: KM12 colon
[36] = system: NCI-H522 lung
[37] = system: KM20L2 colon
[38] = system: MALME-3M melanoma
[39] = system: SK-OV-3 ovarian
[40] = system: SNB-78 CNS
[41] = system: NCI-H460 lung
[42] = system: OVCAR-5 ovarian
[43] = system: RXF 393 renal
[44] = system: HCC-2998 colon
[45] = system: HCT-116 colon
[46] = system: NCI-H226 lung
[47] = system: OVCAR-3 ovarian
[48] = system: OVCAR-4 ovarian
[49] = system: UACC-62 melanoma
[50] = system: M14 melanoma
[51] = system: HT29 colon
[52] = system: OVCAR-8 ovarian
[53] = system: SK-MEL-2 melanoma
[54] = system: EKVX NSCLC
[55] = system: 786-0 renal
[56] = system: A498 renal

Measured: TGI

COC(=N)C(C)C
not listed: [52] | [53] | [54] | [55] | [56]
> 100 µM: all other assays above

CCOC(=O)[C@H](Cc1ccccc1)NC(=O)c1nc[nH]c1[N+](=O)[O-]
not listed: [11] | [37] | [40] | [42] | [43]
> 100 µM: all other assays above

— PubChem BioAssay (NCI)
